From US5047404A, “Chemical compounds” (Smith Kline & French Laboratories, Ltd., priority 1988, dated 1991)

What was measured:
[1] = target: calmodulin insensitive cyclic GMP phosphodiesterase (Homo sapiens, UniProt O76074); test: Phosphodiesterase activity: inhibition of calmodulin insensitive cyclic GMP phosphodiesterase; type: biochemical; settings: procedure of European Patent Application No. 293063; read-out: IC50 (concentration of inhibitor required for 50% inhibition of enzyme activity)
[2] = test system: ovalbumen-induced bronchoconstrictor response; test: Anti-allergic activity: ovalbumen-induced bronchoconstrictor response in sensitised guinea-pigs; type: in vivo, guinea-pigs (male Duncan Hartley); settings: dose 28 μmol/kg i.v. bolus, ovalbumen 1 mg.kg^-1 i.v. challenge 30 min after drug
Procedure: Male Duncan Hartley guinea-pigs (250-300 g) were sensitised to ovalbumen by i.p. injection of 2 ml of 50 mg.ml^-1 i.p. and 0.2 ml s.c. Three weeks later they were anaesthetised with 60 mg.kg^-1 sodium pentabarbitone. The trachea was cannulated and the animal respired at a rate of 40 breaths per minute and at an initial tracheal inflation pressure of 16 mmHg. Tracheal inflation pressure was measured by a transducer connected to a side arm of the respiration circuit. The carotid artery was cannulated for the measurement of blood pressure and the signal was used to trigger an instantaneous rate meter. A jugular vein was cannulated for the administration of drug and allergen. After surgery the animals were allowed to stabilise and the drug was administered i.v. as a bolus. Following this, ovalbumen 1 mg.kg^-1 was injected i.v. as the antigen challenge either 2, 15 or 30 minutes following drug treatment and the peak bronchoconstrictor response recorded. For the control group ovalbumen only was given. One ovalbumen challenge per guinea-pig was used and n=6 for each time point. The percentage increase in tracheal inflation pressure was calculated. The following results indicating an anti-allergic activity were obtained.

[3] = test system: hindquarter vascular resistance; test: Vasodilatation in vivo: hindquarter blood flow, perfused hind quarters; set-up: species or system rats (male Wistar); settings: anaesthetised rats; bolus i.v., 10 μmol/kg
Procedure: Male Wistar rats (300 g) were anaesthetised with a sodium 5-ethyl-5-(I-methylpropyl)-2-thiobarbiturate/sodium pentobarbitone mixture i.p. (62.5 and 22.5 mg/kg respectively). The trachea was cannulated and the rats breathed spontaneously air enriched with O2 (5 ml/min). Blood pressure was recorded from a carotid artery and a jugular vein was cannulated for the administration of compounds. The temperature of the animal was maintained at 37° C. by the use of an electric blanket. […] The perfusion circuit was primed with 5% bovine serum albumin dissolved in 0.9% sodium chloride solution, pH adjusted to 7.4. Initially the pump rate was set between 10 and 15 ml/min to match the hind quarter perfusion pressure to that of the systemic circulation. Once set, the pressure remained unaltered for the rest of the experiment. A change in the speed of the pump (equivalent to hindquarter blood flow) was used to assess the changes in hindquarter vascular resistance.

| IC50 [1] [µM] | Structure (SMILES) | also measured |
| --- | --- | --- |
| 0.55 to 11.4 | CCCOc1ccccc1-c1nc2nnc(OC)nc2c(=O)[nH]1 [Example 11, 3-Methoxy-5,6-dihydro-5-oxo-7-(2-propoxyphenyl)pyrimido[5,4-e][1,2,4]triazine] |  |
| 0.55 to 11.4 | CCCOc1ccccc1-c1nc2[nH]c(=O)c(=O)[nH]c2c(=O)[nH]1 [Example 7, 2-(2-Propoxyphenyl)pteridin-4,6,7(3H,5H,8H)-trione] |  |
| 0.55 to 11.4 | CCCOc1ccccc1-c1nc2ncc(=O)[nH]c2c(=O)[nH]1 [Example 6, 2-(2-Propoxyphenyl)pteridin-4,6(3H,5H)-dione] |  |
|  | CCCOc1ccccc1-c1nc2ncccc2c(=O)[nH]1 [Example 1, 2-(2-Propoxyphenyl)pyrido[2,3-d]pyrimid-4(3H)-one] | % Inhibition of Control Bronchoconstrictor Response 30 min after drug administration [2]: 9% |
|  | CCCOc1ccccc1-c1nc2nc(SC)nnc2c(=O)[nH]1 [Example 12, 3-Methylthio-8-oxo 6-(2-propoxyphenyl)-7,8-dihydropyrimido[4,5-e][1,2,4]triazine] | increase in hindquarter blood flow [3]: 38% |
| 0.55 to 11.4 | CCCOc1ccccc1-c1nc2nnc(NC)nc2c(=O)[nH]1 [Example 10, 3-Methylamino-5,6-dihydro-5-oxo-7-(2-propoxyphenyl)pyrimido[5,4-e][1,2,4]triazine] |  |
